Consider one compound from US11033567B2, “5-aza-2′-deoxycytidine and methods of use thereof for promoting wound healing and regeneration” (THE TRUSTEES OF THE UNIVERSITY OF PENNSYLVANIA, priority 2014, dated 2021).

“Also recorded” adds a separate entry of the source.

The test system of assay [1] is C57B mice carrying full-thickness skin wounds. The assay can be described thus: Effect of systemic Aza-dC treatment (injection) on wound healing and hair follicle regeneration. Format: in vivo. The text has this:
Determining the Effect of Systemic Aza-dC Treatment on Wound Healing and Regeneration:
The dermis was fixed in acetone overnight.

Assay [2] has the same test system. Description: Effect of topical Aza-dC treatment on wound healing and hair follicle regeneration. The conditions noted are these: for hair follicle (HF) neogenesis compared to the vehicle control / hair follicle regeneration: topical; for hair follicle (HF) neogenesis compared to the vehicle control: once a day for 2 consecutive days (SD0 & SD1); for hair follicle regeneration: once a day for 5 consecutive days. It counts as in vivo. The text has this: Determining the Effect of Topical Aza-dC Treatment on Wound Healing and Regeneration: […]

On to `Nc1ncn([C@H]2C[C@H](O)[C@@H](CO)O2)c(=O)n1` [Aza-dC, 5-aza-2′-deoxycytidine], for which the “regeneration of hair follicles in healed wounds” value in assay [1] (injection, 30 μg per gram body weight once a day for 5 consecutive days (SD0 to SD4)) is recorded as “greatly inhibited”. The hair follicle regeneration result is listed as “no effect” in assay [1] (single injection of 30 μg per gram body weight on SD0); “inhibition on hair follicle regeneration; also recorded: greatly inhibited” in assay [1] (single injection of 30 μg per gram body weight on SD1); “little effect” in assay [2] (1 μg); “little effect” in assay [2] (5 μg); “still enhanced” in assay [2] (10 μg). The “inhibitory effect on wound-induced hair follicle regeneration” value in assay [2] (topical application, unlike systemic treatment) is on record as “little inhibitory effect”. In addition, the “stimulatory effect on regeneration” value in assay [2] (topical treatment extended to 5 days (SD0 to SD4)) was “diminished”. In addition, the “hair follicle (HF) neogenesis compared to the vehicle control” value is given as “greatly enhanced” in assay [2] (all doses tested) and “strongest enhancement” in assay [2] (highest tested dose 10 μg).
